Molecules are shown by their SMILES.

The nature of the data set: RP, Waters Atlantis T3, 50 × 4.6 mm, 5 µm, 40 °C, 0.8 mL/min, estimated dead time 0.66 min; A: water + 0.05% trifluoroacetic acid; B: acetonitrile + 0.1% formic acid, pH 3; gradient (min/%B) 0/10 1/10 7/95 12/95 12.5/10 14/10. Particulars: stereoisomer not certain.
In the case of `COc1cccc2c1C(=O)c1c(O)c3c(c(O)c1C2=O)CC(O)(C(C)=O)CC3OC1CC(N)C(O)C(C)O1` (stereo not given) [Daunomycin], the LC retention time was 5.44 min.

Regarding `CC(=O)NC1C(OC2c3ccc(c(Cl)c3)Oc3cc4cc(c3O)Oc3ccc(cc3Cl)CC3NC(=O)C(N)c5ccc(O)c(c5)Oc5cc(O)cc(c5)C(NC3=O)C(=O)NC4C(=O)NC3C(=O)NC2C(=O)NC(C(=O)O)c2cc(O)cc(OC4OC(CO)C(O)C(O)C4O)c2-c2cc3ccc2O)OC(CO)C(O)C1O` (stereo not given) [Teicoplanin A3-1], the LC retention time was 4.02 min.

Take `CC(=O)OC1CC2(C)C(CC(O)C3C4(C)CCC(O)C(C)C4CCC32C)C1=C(CCC=C(C)C)C(=O)O` (stereo not given) [Fusidinic acid]: the LC retention time was 8.3 min.

With `CNC(=O)CC1NC(=O)c2csc(n2)-c2ccc(-c3nc(C4=NC(C(=O)N5CCCC5C(N)=O)CO4)cs3)nc2-c2csc(n2)-c2csc(n2)C(C(O)c2ccccc2)NC(=O)CNC(=O)c2nc(sc2COC)C(C(C)C)NC(=O)c2nc1sc2C` (stereo not given) [GE2270A], the LC retention time is 6.62 min.

As for `COC1C=COC2(C)Oc3c(C)c(O)c4c(O)c(c(C=NN5CCN(C)CC5)c(O)c4c3C2=O)NC(=O)C(C)=CC=CC(C)C(O)C(C)C(O)C(C)C(OC(C)=O)C1C` (stereo not given) [Rifampicin], the LC retention time is 6.17 min.

Take `CCCC1CC(C(=O)NC(C(C)Cl)C2OC(SC)C(O)C(O)C2O)N(C)C1` (stereo not given) [Clindamycin]: the LC retention time was 4.83 min.

Turning to `CCC1OC(=O)C(C)C(OC2CC(C)(OC)C(O)C(C)O2)C(C)C(OC2OC(C)CC(N(C)C)C2O)C(C)(OC)CC(C)C(=O)C(C)C(O)C1(C)O` (stereo not given) [Clarithromycin], the LC retention time is 5.91 min.

As to `CCCC=CC=CC(=O)NC(CC(N)=O)C(=O)NC(CC(N)=O)C(=O)NC(C(=O)NC(CCCN)C(=O)NC(C(=O)NC(C(=O)NC(C(=O)NC(C(=O)NC(Cc1ccccc1)C(=O)NC(CCCN)C(=O)NC(C(=O)NC(C(=O)NC(C(=O)NCC(=O)NC(CC(C)C)C(=O)NC(C)C(=O)NC(C(=O)O)C1CCC(O)C(Cl)C1)C1CCC(O)CC1)C(C)O)C1CCC(O)CC1)C(C)O)C1CCC(O)CC1)C1CCC(O)CC1)C(C)O)C1CCC(O)CC1` (stereo not given) [Ramoplanin A], the LC retention time is 5.22 min.

On to `C=C(NC(=O)C(=C)NC(=O)c1csc(C2=NC3c4csc(n4)C4NC(=O)c5csc(n5)C(C(C)(O)C(C)O)NC(=O)C5CSC(=N5)C(=CC)NC(=O)C(C(C)O)NC(=O)c5csc(n5)C3(CC2)NC(=O)C(C)NC(=O)C(=C)NC(=O)C(C)NC(=O)C(C(C)CC)NC2C=Cc3c(C(C)O)cc(nc3C2O)C(=O)OC4C)n1)C(N)=O` (stereo not given) [Thiostrepton], for which the LC retention time was 6.65 min.

As to `C=C(NC(=O)c1csc(-c2nc3c(cc2O)-c2nc(cs2)C(=O)NC(C(C)O)C(=O)NC(=CC)c2nc(cs2)C(=O)NC2CC(O)C(=O)OCc4cccc5[nH]c(c(C)c45)C(=O)SCC(NC(=O)c4csc2n4)c2nc-3cs2)n1)C(N)=O` (stereo not given) [Nosiheptide], the LC retention time is 6.77 min.

As to `COc1cc(Cc2cnc(N)nc2N)cc(OC)c1OC` [Trimethoprim], the LC retention time was 4.06 min.

With `CC1(C)SC2C(NC(=O)C(N)c3ccccc3)C(=O)N2C1C(=O)O` (stereo not given) [Ampicillin], the LC retention time is 4.09 min.

Consider `CCC(C)CCCC(=O)NC(CCN)C(=O)NC(C(=O)NC(CCN)C(=O)NC1CCNC(=O)C(C(C)O)NC(=O)C(CCN)NC(=O)C(CCN)NC(=O)C(CC(C)C)NC(=O)C(CC(C)C)NC(=O)C(CCN)NC1=O)C(C)O` (stereo not given) [Colistin], for which the LC retention time was 4.44 min.

Take `COC1C(OC(N)=O)C(O)C(Oc2ccc3c(O)c(NC(=O)c4ccc(O)c(CC=C(C)C)c4)c(=O)oc3c2C)OC1(C)C` (stereo not given) [Novobiocin]: the LC retention time was 7.62 min.

`CC=CC=CC1OC(O)(C(CC)C(=O)NCC=CC=C(C)C(OC)C(C)C2OC(C=CC=CC=C(C)C(=O)c3c(O)cc[nH]c3=O)C(O)C2O)C(O)C(O)C1(C)C` (stereo not given) [Kirromycin]: the LC retention time is 6.52 min.

Turning to `CCCCCCCCCC(=O)NC(Cc1c[nH]c2ccccc12)C(=O)NC(CC(N)=O)C(=O)NC(CC(=O)O)C(=O)NC1C(=O)NCC(=O)NC(CCCN)C(=O)NC(CC(=O)O)C(=O)NC(C)C(=O)NC(CC(=O)O)C(=O)NCC(=O)NC(CO)C(=O)NC(C(C)CC(=O)O)C(=O)NC(CC(=O)c2ccccc2N)C(=O)OC1C` (stereo not given) [Daptomycin], the LC retention time is 5.79 min.

Consider `CNC(CC(C)C)C(=O)NC1C(=O)NC(CC(N)=O)C(=O)NC2C(=O)NC3C(=O)NC(C(=O)NC(C(=O)O)c4cc(O)cc(O)c4-c4cc3ccc4O)C(O)c3ccc(c(Cl)c3)Oc3cc2cc(c3OC2OC(CO)C(O)C(O)C2OC2CC(C)(N)C(O)C(C)O2)Oc2ccc(cc2Cl)C1O` (stereo not given) [Vancomycin], for which the LC retention time is 3.55 min.

For `CC1(C)SC2C(NC(=O)Cc3ccccc3)C(=O)N2C1C(=O)O` (stereo not given) [Penicillin G], the LC retention time was 5.75 min.

In the case of `CCC(C(=O)O)C1CCC(C)C(C(C)C(O)C(C)C(=O)C(CC)C2OC3(C=CC(O)C4(CCC(C)(C5CCC(O)(CC)C(C)O5)O4)O3)C(C)CC2C)O1` (stereo not given) [Salinomycin], the LC retention time was 11.2 min.

Consider `CC1C(NC(=O)C(=NOC(C)(C)C(=O)O)c2csc(N)n2)C(=O)N1S(=O)(=O)O` (stereo not given) [Aztreonam], for which the LC retention time is 2.91 min.
